Results as given in patent US8207172B2 (Bayer Intellectual Property GmbH, priority 2004, dated 2012).
Counter-ions that a name gives are not always drawn.

Experiments:
[1] = tested on: A431 cells (human epidermoid carcinoma); test: In vitro tumor cell proliferation assay (Cell Titer-Glo luminescent cell viability), A431; format: cell-based; conditions: A-431, 72 h, 72 hours of drug exposure, ATP luminescence readout, read-out: IC50, anti-proliferative activity (inhibition of cell proliferation)
Procedure, shortened: (§1)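 CellTiter-Glo luminescence (ATP content of metabolically active cells) after 72 h compound exposure at 37° C gave IC50s.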

[2] = tested on: BT474 (human breast carcinoma); test: In vitro tumor cell proliferation assay (Cell Titer-Glo luminescent cell viability), BT474; format: cell-based; conditions: BT-474, 72 h, BT474 cells, 72 hours of drug exposure, ATP luminescence readout, read-out: IC50, anti-proliferative activity (inhibition of cell proliferation)
Procedure, shortened: as §1

Compound | IC50 [1] | IC50 [2]
O[C@H](CNCCN1CCOCC1)Cn1cc2c(n1)CCc1c-2sc2ncnc(Nc3ccc(OCc4cccc(F)c4)c(Cl)c3)c12 [Example 142, (2R)-1-[6-({3-chloro-4-[(3-fluorobenzyl)oxy]phenyl}amino)-4,5-dihydro-2H-pyrimido[5′,4′:4,5]thieno[2,3-e]indazol-2-yl]-3-[(2-morpholin-4-ylethyl)amino]propan-2-ol] | ≤ 50 µM | ≤ 1 µM
CCCn1ncc2c1CCc1c-2sc2ncnc(Nc3ccc(OCc4cccc(F)c4)c(Cl)c3)c12 [Example 131, N-{3-chloro-4-[(3-fluorobenzyl)oxy]phenyl}-3-propyl-4,5-dihydro-3H-pyrimido[5′,4′:4,5]thieno[2,3-e]indazol-6-amine trifluoroacetate] | ≤ 50 µM | ≤ 1 µM
CC(C)N1CCC(n2cc3c(n2)CCc2c-3sc3ncnc(Nc4ccc(OCc5cccc(F)c5)c(Cl)c4)c23)CC1 [Example 227, N-{3-chloro-4-[(3-fluorobenzyl)oxy]phenyl}-2-(1-isopropylpiperidin-4-yl)-4,5-dihydro-2H-pyrimido[5′,4′:4,5]thieno[2,3-e]indazol-6-amine] | ≤ 5 µM | ≤ 1 µM
CN(C)[C@@H]1CCN(CCn2cc3c(n2)CCc2c-3sc3ncnc(Nc4ccc(OCc5cccc(F)c5)c(Cl)c4)c23)C1 [Example 60, N-{3-chloro-4-[(3-fluorobenzyl)oxy]phenyl}-2-{2-[(3R)-3-(dimethylamino)pyrrolidin-1-yl]ethyl}-4,5-dihydro-2H-pyrimido[5′,4′:4,5]thieno[2,3-e]indazol-6-amine] | ≤ 5 µM | ≤ 1 µM
CC(C)(C)OC(=O)N1CCN(CCn2cc3c(n2)CCc2c-3sc3ncnc(Nc4ccc(OCc5cccc(F)c5)c(Cl)c4)c23)CC1 [Example 72, tert-butyl 4-{2-[6-({3-chloro-4-[(3-fluorobenzyl)oxy]phenyl}amino)-4,5-dihydro-2H-pyrimido[5′,4′:4,5]thieno[2,3-e]indazol-2-yl]ethyl}piperazine-1-carboxylate] | ≤ 50 µM | ≤ 50 µM
OCCn1ncc2c1CCc1c-2sc2ncnc(Nc3ccc(F)c(Cl)c3)c12 [Example 88, 2-{6-[(3-chloro-4-fluorophenyl)amino]-4,5-dihydro-3H-pyrimido[5′,4′:4,5]thieno[2,3-e]indazol-3-yl}ethanol] | ≤ 5 µM | ≤ 5 µM
COCCN(CCn1cc2c(n1)CCc1c-2sc2ncnc(Nc3ccc(F)c(Cl)c3)c12)C(C)C [Example 21, N-(3-chloro-4-fluorophenyl)-2-{2-[isopropyl(2-methoxyethyl)amino]ethyl}-4,5-dihydro-2H-pyrimido[5′,4′:4,5]thieno[2,3-e]indazol-6-amine] | ≤ 5 µM | ≤ 5 µM
CS(=O)(=O)CCNC(=O)Cn1ncc2c1CCc1c-2sc2ncnc(Nc3ccc(OCc4cccc(F)c4)c(Cl)c3)c12 [Example 204, 2-[6-({3-chloro-4-[(3-fluorobenzyl)oxy]phenyl}amino)-4,5-dihydro-3H-pyrimido[5′,4′:4,5]thieno[2,3-e]indazol-3-yl]-N-[2-(methylsulfonyl)ethyl]acetamide] | ≤ 50 µM | ≤ 1 µM
Cc1ccc(Oc2ccc(Nc3ncnc4sc5c(c34)CCc3nn(CCN4CCN(C)CC4)cc3-5)cc2C)cn1 [Example 49, N-{3-methyl-4-[(6-methylpyridin-3-yl)oxy]phenyl}-2-[2-(4-methylpiperazin-1-yl)ethyl]-4,5-dihydro-2H-pyrimido[5′,4′:4,5]thieno[2,3-e]indazol-6-amine] | ≤ 5 µM | ≤ 1 µM
CS(=O)(=O)OCCn1ncc2c1CCc1c-2sc2ncnc(Nc3ccc(F)c(Cl)c3)c12 [Example 89, 2-{6-[(3-chloro-4-fluorophenyl)amino]-4,5-dihydro-3H-pyrimido[5′,4′:4,5]thieno[2,3-e]indazol-3-yl}ethyl methanesulfonate] | ≤ 50 µM | ≤ 50 µM
CN(C)[C@@H]1CCN(CC(=O)N2CCC(n3cc4c(n3)CCc3c-4sc4ncnc(Nc5ccc(OCc6cccc(F)c6)c(Cl)c5)c34)CC2)C1 [Example 219, N-{3-chloro-4-[(3-fluorobenzyl)oxy]phenyl}-2-(1-{[(3R)-3-(dimethylamino)pyrrolidin-1-yl]acetyl}piperidin-4-yl)-4,5-dihydro-2H-pyrimido[5′,4′:4,5]thieno[2,3-e]indazol-6-amine] | ≤ 5 µM | ≤ 1 µM
Fc1cccc(COc2ccc(Nc3ncnc4sc5c(c34)CCc3nn(C4CCNCC4)cc3-5)cc2Cl)c1 [Example 217, N-{3-chloro-4-[(3-fluorobenzyl)oxy]phenyl}-2-piperidin-4-yl-4,5-dihydro-2H-pyrimido[5′,4′:4,5]thieno[2,3-e]indazol-6-amine] | ≤ 5 µM | ≤ 1 µM
CCNCCn1cc2c(n1)CCc1c-2sc2ncnc(Nc3ccc(OCc4ccccn4)c(Cl)c3)c12 [Example 108, N-[3-chloro-4-(pyridin-2-ylmethoxy)phenyl]-2-[2-(ethylamino)ethyl]-4,5-dihydro-2H-pyrimido[5′,4′:4,5]thieno[2,3-e]indazol-6-amine] | ≤ 50 µM | ≤ 1 µM
O=C(Cn1ncc2c1CCc1c-2sc2ncnc(Nc3ccc(OCc4cccc(F)c4)c(Cl)c3)c12)N1CC[C@H](O)C1 [Example 214, 1-{[6-({3-chloro-4-{(3-fluorobenzyl)oxy]phenyl}amino)-4,5-dihydro-3H-pyrimido[5′,4′:4,5]thieno[2,3-e]indazol-3-yl]acetyl}pyrrolidin-3-ol] | ≤ 5 µM | ≤ 1 µM
C=CCn1cc2c(n1)CCc1c-2sc2ncnc(Nc3ccc(OCc4cccc(F)c4)c(Cl)c3)c12 [Example 128, 2-allyl-N-{3-chloro-4-[(3-fluorobenzyl)oxy]phenyl}-4,5-dihydro-2H-pyrimido[5′,4′:4,5]thieno[2,3-e]indazol-6-amine trifluoroacetate (Salt)] | ≤ 50 µM | ≤ 1 µM
CN1CCN(CC(=O)N2CCC(Cn3cc4c(n3)CCc3c-4sc4ncnc(Nc5ccc(OCc6cccc(F)c6)c(Cl)c5)c34)CC2)CC1 [Example 237] | ≤ 5 µM | ≤ 1 µM
CCCN1CCC(n2cc3c(n2)CCc2c-3sc3ncnc(Nc4ccc(OCc5cccc(F)c5)c(Cl)c4)c23)CC1 [Example 229, N-{3-chloro-4-[(3-fluorobenzyl)oxy]phenyl}-2-(1-propylpiperidin-4-yl)-4,5-dihydro-2H-pyrimido[5′,4′:4,5]thieno[2,3-e]indazol-6-amine] | ≤ 5 µM | ≤ 1 µM
C=CCn1ncc2c1CCc1c-2sc2ncnc(Nc3ccc(OCc4cccc(F)c4)c(Cl)c3)c12 [Example 129, 3-allyl-N-{3-chloro-4-[(3-fluorobenzyl)oxy]phenyl}-4,5-dihydro-3H-pyrimido[5′,4′:4,5]thieno[2,3-e]indazol-6-amine] | ≤ 50 µM | ≤ 1 µM
COCCNC[C@@H](O)Cn1ncc2c1CCc1c-2sc2ncnc(Nc3ccc(OCc4cccc(F)c4)c(Cl)c3)c12 [Example 173, (2R)-1-[6-({3-chloro-4-[(3-fluorobenzyl)oxy]phenyl}amino)-4,5-dihydro-3H-pyrimido[5′,4′:4,5]thieno[2,3-e]indazol-3-yl]-3-[(2-methoxyethyl)amino]propan-2-ol trifluoroacetate (salt)] | ≤ 5 µM | ≤ 1 µM
CN1CCN(CCn2cc3c(n2)CCc2c-3sc3ncnc(Nc4ccc5c(cnn5Cc5cccc(F)c5)c4)c23)CC1 [Example 277] | ≤ 5 µM | ≤ 1 µM
CNCCn1cc2c(n1)CCc1c-2sc2ncnc(Nc3ccc(OCc4cccc(F)c4)c(Cl)c3)c12 [Example 71, N-{3-chloro-4-[(3-fluorobenzyl)oxy]phenyl}-2-[2-(methylamino)ethyl]-4,5-dihydro-2H-pyrimido[5′,4′:4,5]thieno[2,3-e]indazol-6-amine] | ≤ 50 µM | ≤ 1 µM
COCCN1CCN(C[C@@H](O)Cn2ncc3c2CCc2c-3sc3ncnc(Nc4ccc(OCc5cccc(F)c5)c(Cl)c4)c23)CC1 [Example 134, (2R)-1-[6-({3-chloro-4-[(3-fluorobenzyl)oxy]phenyl}amino)-4,5-dihydro-3H-pyrimido[5′,4′:4,5]thieno[2,3-e]indazol-3-yl]-3-[4-(2-methoxyethyl)piperazin-1-yl]propan-2-ol] | ≤ 50 µM | ≤ 1 µM
CC(C)(C)[Si](C)(C)OCCn1cc2c(n1)CCc1c-2sc2ncnc(Nc3ccc(OCc4ccccc4)c(Cl)c3)c12 [Example 123, N-[4-(benzyloxy)-3-chlorophenyl]-2-(2-{[tert-butyl(dimethyl)silyl]oxy}ethyl)-4,5-dihydro-2H-pyrimido[5′,4′:4,5]thieno[2,3-e]indazol-6-amine] | ≤ 50 µM | ≤ 5 µM
COc1cccc(COc2ccc(Nc3ncnc4sc5c(c34)CCc3nn(CCN4CCN(C)CC4)cc3-5)cc2Cl)c1 [Example 324, N-{3-chloro-4-[(3-methoxybenzyl)oxy]phenyl}-2-[2-(4-methylpiperazin-1-yl)ethyl]-4,5-dihydro-2H-pyrimido[5′,4′:4,5]thieno[2,3-e]indazol-6-amine] | ≤ 5 µM | ≤ 5 µM
CN1CCN(CCn2cc3c(n2)CCc2c-3sc3ncnc(Nc4ccc(O)c(Cl)c4)c23)CC1 [Example 46, 2-chloro-4-({2-[2-(4-methylpiperazin-1-yl)ethyl]-4,5-dihydro-2H-pyrimido[5′,4′:4,5]thieno[2,3-e]indazol-6-yl}amino)phenol] | ≤ 50 µM | ≤ 5 µM
CCN1CCN(CCn2cc3c(n2)CCc2c-3sc3ncnc(Nc4ccc5c(cnn5Cc5ccccc5)c4)c23)CC1 [Example 305, N-(1-benzyl-1H-indazol-5-yl)-2-[2 (4-ethylpiperazin-1-yl)ethyl]-4,5-dihydro-2H-pyrimido[5′,4′:4,5]thieno[2,3-e]indazol-6-amine] | ≤ 5 µM | ≤ 1 µM
